Source: ChEMBL document CHEMBL6121016, “Design, Synthesis, and Biological Evaluation of 1,3,4-Thiadiazole Derivatives as Novel Potent Peptide Deformylase Inhibitors for Combating Drug-Resistant Gram-Positive and -Negative Bacteria” (J Med Chem, 2025)
Converted amounts (≈) assume the structure as drawn. The source made the active and inactive calls. The calls are words filed in the database; no cut-off is given here.

Key:
Escherichia coli [1] = assay: Antibacterial activity against Escherichia coli ATCC 10661 after 16 to 18 hrs by broth microdilution method; assay type: functional; settings: time 16-18 hrs
Staphylococcus aureus [2] = assay: Anti-biofilm activity against methicillin-resistant Staphylococcus aureus assessed as growth inhibition at 0.031 microg/ml incubated for 24 hrs by microplate reader analysis relative to control; assay type: functional
[3] = test system: Staphylococcus epidermidis; assay: Antibacterial activity against Staphylococcus epidermidis after 16 to 18 hrs by broth microdilution method; assay type: functional; settings: time 16-18 hrs
Acinetobacter baumannii [4] = assay: Bactericidal activity against drug-resistant Acinetobacter baumannii assessed as bacteriostatic efficiency at 2 microg/mL measured within 24 hrs by time killing analysis relative to control; assay type: functional, organism-based; settings: dose 2.0 µg/ml
Escherichia coli [5] = assay: Antibacterial activity against Escherichia coli ATCC 25922 after 16 to 18 hrs by broth microdilution method; assay type: functional; settings: time 16-18 hrs
Acinetobacter baumannii [6] = assay: In vivo anti-bacterial activity against drug-resistant Acinetobacter baumannii infected MK mouse assessed as pathological changes of organs at 40 mg/kg; assay type: functional, organism-based
[7] = Acute toxicity in KM mouse infected with drug-resistant Acinetobacter baumannii assessed as survival rate at 40 mg/kg; assay type: organism-based; settings: in vivo
[8] = Cytotoxicity against human HEK293T cells assessed as cell viability at 3.125 to 100 uM incubated for 24 hrs by MTT assay; assay type: toxicity, cell-based, HEK-293T
Staphylococcus aureus [9] = assay: Antibacterial activity against methicillin-susceptible Staphylococcus aureus ATCC 25923 after 16 to 18 hrs by broth microdilution method; assay type: functional; settings: time 16-18 hrs
[10] = Acute toxicity in normal mouse assessed as death at 400 mg/kg, iv observed for 14 days; assay type: organism-based; settings: in vivo, 336 h, time 14 day
Acinetobacter baumannii [11] = assay: Anti-biofilm activity against of Acinetobacter baumannii assessed as growth inhibition at 2 microg/ml incubated for 24 hrs by microplate reader analysis relative to control; assay type: functional
Acinetobacter baumannii [12] = assay: Induction of morphological changes in Acinetobacter baumannii Bio 53272 assessed as increased wrinkles at 8 times of MIC incubated for 4 hrs by Field emission scanning electron microscopic analysis; assay type: functional, organism-based
Staphylococcus aureus [13] = assay: Antibacterial activity against methicillin-susceptible Staphylococcus aureus ATCC 13709 after 16 to 18 hrs by broth microdilution method; assay type: functional; settings: time 16-18 hrs
Staphylococcus aureus [14] = assay: Bactericidal activity against methicillin-resistant Staphylococcus aureus assessed as bacteriostatic efficiency at 0.25 microg/mL incubated for 24 hrs by time killing analysis relative to control; assay type: functional; settings: dose 0.25 µg/ml
[15] = Methemoglobin toxicity in human blood at 500 uM incubated for 6 hrs by MetHb content assay; assay type: tissue-based
Staphylococcus aureus [16] = assay: Antibacterial activity against methicillin-susceptible Staphylococcus aureus ATCC 29213 after 16 to 18 hrs by broth microdilution method; assay type: functional; settings: time 16-18 hrs
[17] = Cytotoxicity against human HeLa cells assessed as cell viability at 3.125 to 100 uM incubated for 24 hrs by MTT assay; assay type: toxicity, cell-based
[18] = Acute toxicity in normal mouse assessed as aberrant behaviors at 400 mg/kg, iv observed for 14 days; assay type: organism-based; settings: in vivo, 336 h, time 14 day
Acinetobacter baumannii [19] = assay: Antibacterial activity against Acinetobacter baumannii Bio 53250 after 16 to 18 hrs by broth microdilution method; assay type: functional; settings: time 16-18 hrs
Acinetobacter baumannii [20] = assay: Bactericidal activity against drug-resistant Acinetobacter baumannii assessed as bacteriostatic efficiency measured after 0 to 24 hrs by time killing analysis; assay type: functional, organism-based; settings: dose 0.5-2 µg/ml, time 0-24 hrs
Acinetobacter baumannii [21] = assay: In vivo anti-bacterial activity against drug-resistant Acinetobacter baumannii infected MK mouse; assay type: functional
Peptide deformylase [22] = molecular target: T1, Peptide deformylase (Escherichia coli, UniProt Q9JN24); assay: Inhibition of Escherichia coli PDF-Ni assessed as enzyme activity incubated for 30 min by fluorescamine method
T1 sequence (Q9JN24 whole entry): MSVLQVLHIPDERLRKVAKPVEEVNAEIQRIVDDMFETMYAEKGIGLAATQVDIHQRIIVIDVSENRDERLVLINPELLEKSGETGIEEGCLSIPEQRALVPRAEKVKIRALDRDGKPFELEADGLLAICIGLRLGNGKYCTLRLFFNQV

Acinetobacter baumannii [23] = assay: Bactericidal activity against drug-resistant Acinetobacter baumannii assessed as bacteriostatic efficiency at 0.5 to 2 microg/mL by time killing analysis; assay type: functional, organism-based; settings: dose 0.5-2 µg/ml, time 0-25 hrs
Peptide deformylase [24] = molecular target: T2, Peptide deformylase (Staphylococcus aureus, UniProt P68826); assay: Inhibition of Staphylococcus aureus PDF-Ni assessed as enzyme activity incubated for 30 min by fluorescamine method
T2 sequence (P68826 whole entry): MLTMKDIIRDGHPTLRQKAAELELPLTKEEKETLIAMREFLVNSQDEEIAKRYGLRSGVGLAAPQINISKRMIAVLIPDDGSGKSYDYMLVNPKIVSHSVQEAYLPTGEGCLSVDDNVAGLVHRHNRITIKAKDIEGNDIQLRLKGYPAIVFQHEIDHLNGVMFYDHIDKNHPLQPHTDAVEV

[25] = Acute toxicity in KM mouse infected with drug-resistant Acinetobacter baumannii assessed as pathological changes in liver at 40 mg/kg by HE staining based analysis; assay type: organism-based; settings: in vivo
Acinetobacter baumannii [26] = assay: Anti-biofilm activity against Acinetobacter baumannii assessed as growth inhibition at 32 microg/ml incubated for 24 hrs by microplate reader analysis relative to control; assay type: functional
Acinetobacter baumannii [27] = assay: Antibacterial activity against Acinetobacter baumannii Bio 120982 after 16 to 18 hrs by broth microdilution method; assay type: functional; settings: time 16-18 hrs
Acinetobacter baumannii [28] = assay: Antibacterial activity against Acinetobacter baumannii Bio 69680 after 16 to 18 hrs by broth microdilution method; assay type: functional; settings: time 16-18 hrs
Staphylococcus aureus [29] = assay: Anti-biofilm activity against methicillin-resistant Staphylococcus aureus assessed as growth inhibition at 4 microg/ml incubated for 24 hrs by microplate reader analysis relative to control; assay type: functional
Staphylococcus aureus [30] = assay: Antibacterial activity against methicillin-resistant Staphylococcus aureus ATCC 33591 after 16 to 18 hrs by broth microdilution method; assay type: functional; settings: time 16-18 hrs
Acinetobacter baumannii [31] = assay: Potency index, ratio of ciprofloxacin MIC to test compound MIC for antibacterial activity against drug-resistant Acinetobacter baumannii after 16 to 18 hrs by broth microdilution method; assay type: functional; settings: time 16-18 hrs
Acinetobacter baumannii [32] = assay: Anti-biofilm activity against Acinetobacter baumannii at 0.5 to 64 microg/ml incubated for 24 hrs by microplate reader analysis; assay type: functional; settings: dose 0.5-64 µg/ml, at 0.5 to 64 µg/mL
[33] = Acute toxicity in normal mouse assessed as death at 200 mg/kg, iv observed for 14 days; assay type: organism-based; settings: in vivo, 336 h, time 14 day
Staphylococcus aureus [34] = assay: Antibacterial activity against methicillin-resistant Staphylococcus aureus Bio-090770 after 16 to 18 hrs by broth microdilution method; assay type: functional; settings: time 16-18 hrs
Staphylococcus aureus [35] = assay: Anti-biofilm activity against mature methicillin-resistant Staphylococcus aureus at 8 microg/ml incubated for 24 hrs by microplate reader analysis; assay type: functional; settings: dose 8 µg/ml
[36] = Acute toxicity in normal mouse assessed as aberrant behaviors at 200 mg/kg, iv observed for 14 days; assay type: organism-based; settings: in vivo, 336 h, time 14 day
Escherichia coli [37] = assay: Antibacterial activity against Escherichia coli ATCC 10668 after 16 to 18 hrs by broth microdilution method; assay type: functional; settings: time 16-18 hrs
[38] = Acute toxicity in KM mouse infected with drug-resistant Acinetobacter baumannii assessed as pathological changes in kidney at 40 mg/kg by HE staining based analysis; assay type: organism-based; settings: in vivo
Klebsiella pneumoniae = assay: Antibacterial activity against Klebsiella pneumoniae CICC 21092 after 16 to 18 hrs by broth microdilution method; assay type: functional; settings: time 16-18 hrs
Escherichia coli [39] = assay: Antibacterial activity against Escherichia coli ATCC 10663 after 16 to 18 hrs by broth microdilution method; assay type: functional; settings: time 16-18 hrs
Acinetobacter baumannii [40] = assay: Antibacterial activity against Acinetobacter baumannii Bio 34235 after 16 to 18 hrs by broth microdilution method; assay type: functional; settings: time 16-18 hrs

CCCC[C@H](CN(O)C=O)C(=O)N1CCC[C@H]1c1nnc(-c2cccs2)s1
MIC (Escherichia coli [1]): 4 µg/mL (≈ 9.79 µM)
inhibition at 0.031 µg/mL (Staphylococcus aureus [2]): 40%
MIC [3]: 0.125 µg/mL (≈ 0.306 µM)
Activity (Acinetobacter baumannii [4]): Active
MIC (Escherichia coli [5]): 2 µg/mL (≈ 4.9 µM)
Activity (Acinetobacter baumannii [6]): inactive
Activity [7]: Non-toxic
IC50 at 24 h [8]: > 100000 nM
MIC (Staphylococcus aureus [9]): 0.25 µg/mL (≈ 0.612 µM)
Activity [10]: Non-toxic
inhibition at 2 µg/mL (Acinetobacter baumannii [11]): 50%
Activity (Acinetobacter baumannii [12]): Active
MIC (Staphylococcus aureus [13]): 0.25 µg/mL (≈ 0.612 µM)
Activity (Staphylococcus aureus [14]): 100%
Activity [15]: Toxic
MIC (Staphylococcus aureus [16]): 0.25 µg/mL (≈ 0.612 µM)
IC50 at 24 h [17]: > 100000 nM
Activity [18]: Non-toxic
MIC (Acinetobacter baumannii [19]): 4 µg/mL (≈ 9.79 µM)
Activity (Acinetobacter baumannii [20]): Dose-dependent-effect
ED50 (Acinetobacter baumannii [21]): 30.4 mg/kg
IC50 (Peptide deformylase [22]): 10.6 nM
Activity (Acinetobacter baumannii [23]): Dose-dependent-effect
IC50 (Peptide deformylase [24]): 2.5 nM
Activity [25]: Non-toxic
inhibition at 32 µg/mL (Acinetobacter baumannii [26]): 70%
MIC (Acinetobacter baumannii [27]): 4 µg/mL (≈ 9.79 µM)
MIC (Acinetobacter baumannii [28]): 4 µg/mL (≈ 9.79 µM)
inhibition at 4 µg/mL (Staphylococcus aureus [29]): 88%
MIC (Staphylococcus aureus [30]): 0.125 µg/mL (≈ 0.306 µM)
Ratio (Acinetobacter baumannii [31]): >64
Activity (Acinetobacter baumannii [32]): 7.1%
Activity [33]: Non-toxic
MIC (Staphylococcus aureus [34]): 0.25 µg/mL (≈ 0.612 µM)
Activity (Staphylococcus aureus [35]): 60%
Activity [36]: Non-toxic
MIC (Escherichia coli [37]): 8 µg/mL (≈ 19.6 µM)
Activity [38]: Non-toxic
MIC (Klebsiella pneumoniae): 16 µg/mL (≈ 39.2 µM)
MIC (Escherichia coli [39]): 8 µg/mL (≈ 19.6 µM)
MIC (Acinetobacter baumannii [40]): 4 µg/mL (≈ 9.79 µM)
